For one series, the target named is Aromatase / CYP19A1 (Homo sapiens, UniProt P11511). The series can be described thus: Eurofins CYP450 inhibition, dibenzyl fluorescein substrate. Format: biochemical. To be noted: 10 μM 2AP.
For another series, the system named is Glutamate. The series can be described thus: Eurofins radioligand receptor binding inhibition. To be noted: 10 μM 2AP.
In the next series the target is Adrenergic β2 (Homo sapiens, UniProt P07550). The series can be described thus: Eurofins radioligand receptor binding inhibition. Details: dose or concentration left out as unconfirmed.
Sequence of Adrenergic β2 (P07550 whole entry): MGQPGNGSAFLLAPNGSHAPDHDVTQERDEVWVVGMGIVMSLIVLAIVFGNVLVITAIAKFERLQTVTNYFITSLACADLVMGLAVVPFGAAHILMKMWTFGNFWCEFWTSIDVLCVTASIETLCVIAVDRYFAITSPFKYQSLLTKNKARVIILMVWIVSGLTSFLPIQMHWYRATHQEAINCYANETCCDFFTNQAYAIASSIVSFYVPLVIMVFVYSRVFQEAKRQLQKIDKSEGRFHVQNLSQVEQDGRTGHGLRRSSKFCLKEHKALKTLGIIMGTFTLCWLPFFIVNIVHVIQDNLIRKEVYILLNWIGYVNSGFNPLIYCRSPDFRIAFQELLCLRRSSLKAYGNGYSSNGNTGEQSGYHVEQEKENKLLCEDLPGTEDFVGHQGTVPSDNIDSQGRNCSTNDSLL
For the next series, the target named is Adrenergic α2A (Homo sapiens, UniProt P08913). The series can be described thus: Eurofins radioligand receptor binding inhibition. To be noted: 10 μM 2AP.
Sequence of Adrenergic α2A (P08913 whole entry): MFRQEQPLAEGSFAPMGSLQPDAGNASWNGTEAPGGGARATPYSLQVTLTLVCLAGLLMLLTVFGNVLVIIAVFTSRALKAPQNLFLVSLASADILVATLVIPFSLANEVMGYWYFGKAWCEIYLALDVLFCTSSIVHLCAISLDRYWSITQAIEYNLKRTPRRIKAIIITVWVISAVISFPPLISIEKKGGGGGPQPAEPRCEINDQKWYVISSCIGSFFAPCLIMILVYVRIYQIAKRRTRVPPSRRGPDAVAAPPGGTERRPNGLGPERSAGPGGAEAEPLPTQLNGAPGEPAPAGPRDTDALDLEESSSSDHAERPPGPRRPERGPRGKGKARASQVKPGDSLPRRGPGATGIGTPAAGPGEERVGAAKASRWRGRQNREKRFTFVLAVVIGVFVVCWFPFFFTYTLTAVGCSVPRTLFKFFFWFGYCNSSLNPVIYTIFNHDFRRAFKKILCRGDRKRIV
For series [1], the target named is Nicotinic Acetylcholine α3β4 (Homo sapiens, UniProt P30926+P32297). The series can be described thus: Eurofins radioligand receptor binding inhibition. To be noted: 10 μM 2AP.
Sequence of Nicotinic Acetylcholine α3β4 (P32297 32-505): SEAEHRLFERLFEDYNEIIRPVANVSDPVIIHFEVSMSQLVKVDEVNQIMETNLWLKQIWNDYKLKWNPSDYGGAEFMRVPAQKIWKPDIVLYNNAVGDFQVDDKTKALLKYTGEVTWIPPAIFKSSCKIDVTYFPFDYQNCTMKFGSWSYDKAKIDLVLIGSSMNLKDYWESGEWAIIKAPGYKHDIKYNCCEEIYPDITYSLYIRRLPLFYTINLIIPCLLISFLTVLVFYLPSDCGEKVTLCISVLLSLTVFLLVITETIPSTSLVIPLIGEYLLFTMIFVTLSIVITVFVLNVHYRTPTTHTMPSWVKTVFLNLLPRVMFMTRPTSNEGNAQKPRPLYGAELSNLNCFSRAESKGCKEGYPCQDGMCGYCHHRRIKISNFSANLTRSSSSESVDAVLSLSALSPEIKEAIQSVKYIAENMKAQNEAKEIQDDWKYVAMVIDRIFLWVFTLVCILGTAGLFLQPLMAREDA
Sequence of Nicotinic Acetylcholine α3β4 (P30926 22-498): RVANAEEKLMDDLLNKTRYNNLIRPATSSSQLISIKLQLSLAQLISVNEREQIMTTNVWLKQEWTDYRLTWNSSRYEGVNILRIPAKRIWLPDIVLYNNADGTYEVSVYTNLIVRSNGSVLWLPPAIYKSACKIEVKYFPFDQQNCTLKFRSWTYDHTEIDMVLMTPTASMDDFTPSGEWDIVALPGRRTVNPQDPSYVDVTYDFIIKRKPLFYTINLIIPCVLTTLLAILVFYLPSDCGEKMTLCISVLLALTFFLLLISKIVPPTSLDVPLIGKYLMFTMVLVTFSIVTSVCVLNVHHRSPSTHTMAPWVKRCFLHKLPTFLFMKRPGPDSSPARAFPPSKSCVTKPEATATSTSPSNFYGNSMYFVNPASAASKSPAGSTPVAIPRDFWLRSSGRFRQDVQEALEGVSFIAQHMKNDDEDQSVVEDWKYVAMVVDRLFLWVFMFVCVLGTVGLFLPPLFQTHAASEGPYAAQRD
The target in a further series is Dopamine D2S (Homo sapiens, UniProt P14416). The series can be described thus: Eurofins radioligand receptor binding inhibition. Details: dose or concentration left out as unconfirmed.
Sequence of Dopamine D2S (P14416 1-414 isoform P14416-2): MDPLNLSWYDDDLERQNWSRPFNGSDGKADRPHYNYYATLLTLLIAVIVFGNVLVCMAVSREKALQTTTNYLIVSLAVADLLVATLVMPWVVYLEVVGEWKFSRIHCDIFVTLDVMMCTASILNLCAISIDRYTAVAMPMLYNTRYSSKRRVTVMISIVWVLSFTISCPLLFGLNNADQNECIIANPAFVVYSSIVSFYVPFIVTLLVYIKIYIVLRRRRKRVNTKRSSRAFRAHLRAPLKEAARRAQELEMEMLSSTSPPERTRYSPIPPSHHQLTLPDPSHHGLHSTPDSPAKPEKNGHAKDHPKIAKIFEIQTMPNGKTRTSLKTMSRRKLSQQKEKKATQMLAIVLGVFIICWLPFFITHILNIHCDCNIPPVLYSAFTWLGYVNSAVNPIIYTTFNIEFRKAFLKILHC
Another series concerns Sodium Channel, Site 2. The series can be described thus: Eurofins radioligand receptor binding inhibition. To be noted: 10 μM 2AP.
The next series concerns the target Adrenergic α1A (Rattus norvegicus, UniProt P43140). The series can be described thus: Eurofins radioligand receptor binding inhibition. To be noted: 10 μM 2AP.
Series [2] has as its system Calcium Channel L-Type, Dihydropyridine. The series can be described thus: Eurofins radioligand receptor binding inhibition. To be noted: 10 μM 2AP.
The subject of another series is GABAA Muscimol. The series can be described thus: Eurofins radioligand receptor binding inhibition. To be noted: 10 μM 2AP.
The target of another series is Cannabinoid CB1 (Homo sapiens, UniProt P21554). The series can be described thus: Eurofins radioligand receptor binding inhibition. Set-up: dose or concentration left out as unconfirmed.
The next series has as its target CYP1A2 (Homo sapiens, UniProt P05177). The series can be described thus: Eurofins CYP450 inhibition, 3-Cyano-7-ethoxycoumarin substrate. Format: in vitro ADME. To be noted: recombinant CYP1A2, probe 3-cyano-7-ethoxycoumarin, 10 μM 2AP. The procedure: CYP450 enzymes and a panel of receptors were assessed for inhibition by 10 μM 2AP using HitProfilingScreen + CYP450 LeadHunter Panel at Eurofins (Eurofins Panlabs Discovery Services, New Taipei City, Taiwan). Briefly, human recombinant CYP450 enzymes were preincubated at 37°C for 15 minutes with 10 μM 2AP. Enzyme activity was assessed by cleavage of the CYP450 fluorogenic substrates dibenzyl fluorescein (aromatase / CYP19A1, CYP2C8), 3-Cyano-7-ethoxycoumarin (CYP1A2, CYP2B6, CYP2C19, CYP2C9, and CYP2D6), or 7-Benzyloxy-4-(trifluoromethyl)-coumarin (CYP3A4), as described previously. Inhibition of receptor binding was assessed using a panel of receptors expressed on cell lines or using tissue extracts and preincubated at 25°C for 30–120 minutes with 10 μM 2AP. Cells or tissue extracts were then incubated with radiolabeled specific ligands a described (https://www.eurofinsdiscovery.com/catalog/hitprofilingscreen-cyp450-leadhunter-panel-tw/PP115) and inhibition of binding was reported (S2 Table).

The next series addresses Opiate μ (OP3, MOP) (Homo sapiens, UniProt P35372). The series can be described thus: Eurofins radioligand receptor binding inhibition. Set-up: dose or concentration left out as unconfirmed.
The next series addresses Adrenergic β1 (Homo sapiens, UniProt P08588). The series can be described thus: Eurofins radioligand receptor binding inhibition. To be noted: 10 μM 2AP.
A further series has as its target Muscarinic M3 (Homo sapiens, UniProt P20309). The series can be described thus: Eurofins radioligand receptor binding inhibition. To be noted: 10 μM 2AP.
The next series has as its target Muscarinic M2 (Homo sapiens, UniProt P08172). The series can be described thus: Eurofins radioligand receptor binding inhibition. Details: dose or concentration left out as unconfirmed.
In a further series the test system is Imidazoline I2, Central. The series can be described thus: Eurofins radioligand receptor binding inhibition. To be noted: 10 μM 2AP.

Sequence of Adrenergic β1 (P08588 whole entry): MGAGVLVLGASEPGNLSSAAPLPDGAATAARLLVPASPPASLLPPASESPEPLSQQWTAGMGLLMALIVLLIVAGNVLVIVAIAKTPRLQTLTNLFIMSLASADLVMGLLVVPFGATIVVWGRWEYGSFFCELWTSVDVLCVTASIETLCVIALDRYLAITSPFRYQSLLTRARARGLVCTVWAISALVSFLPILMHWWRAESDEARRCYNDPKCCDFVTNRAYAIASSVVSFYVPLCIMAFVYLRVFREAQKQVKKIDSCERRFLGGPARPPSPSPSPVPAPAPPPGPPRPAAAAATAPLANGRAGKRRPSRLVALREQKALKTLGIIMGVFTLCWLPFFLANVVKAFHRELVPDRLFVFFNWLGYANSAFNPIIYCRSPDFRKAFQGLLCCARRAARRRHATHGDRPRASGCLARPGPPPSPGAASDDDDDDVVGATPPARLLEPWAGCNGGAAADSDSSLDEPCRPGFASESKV
Sequence of Adrenergic α1A (P43140 whole entry): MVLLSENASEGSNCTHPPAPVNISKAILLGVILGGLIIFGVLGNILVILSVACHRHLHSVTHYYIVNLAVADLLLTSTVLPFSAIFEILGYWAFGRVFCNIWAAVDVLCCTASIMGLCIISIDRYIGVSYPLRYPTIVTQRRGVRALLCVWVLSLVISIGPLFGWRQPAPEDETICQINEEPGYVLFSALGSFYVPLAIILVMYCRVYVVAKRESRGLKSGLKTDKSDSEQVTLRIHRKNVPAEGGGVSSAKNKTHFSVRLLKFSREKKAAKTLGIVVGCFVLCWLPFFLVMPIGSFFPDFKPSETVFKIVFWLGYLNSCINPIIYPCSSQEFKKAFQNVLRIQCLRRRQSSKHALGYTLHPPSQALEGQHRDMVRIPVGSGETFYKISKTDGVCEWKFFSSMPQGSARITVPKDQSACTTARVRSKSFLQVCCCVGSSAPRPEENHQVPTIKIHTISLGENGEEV
Sequence of Muscarinic M2 (P08172 whole entry): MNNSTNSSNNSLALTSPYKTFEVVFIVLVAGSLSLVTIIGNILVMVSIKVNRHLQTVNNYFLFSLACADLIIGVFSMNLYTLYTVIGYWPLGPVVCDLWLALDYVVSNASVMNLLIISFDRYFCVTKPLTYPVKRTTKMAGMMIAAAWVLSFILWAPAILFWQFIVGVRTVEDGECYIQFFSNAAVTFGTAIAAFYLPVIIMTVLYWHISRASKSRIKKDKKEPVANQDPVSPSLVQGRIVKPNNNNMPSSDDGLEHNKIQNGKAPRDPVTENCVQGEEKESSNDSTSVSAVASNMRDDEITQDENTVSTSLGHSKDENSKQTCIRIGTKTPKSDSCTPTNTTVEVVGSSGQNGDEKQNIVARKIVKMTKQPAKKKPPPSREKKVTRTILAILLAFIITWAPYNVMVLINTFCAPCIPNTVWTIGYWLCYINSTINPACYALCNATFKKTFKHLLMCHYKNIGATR
Sequence of Muscarinic M3 (P20309 whole entry): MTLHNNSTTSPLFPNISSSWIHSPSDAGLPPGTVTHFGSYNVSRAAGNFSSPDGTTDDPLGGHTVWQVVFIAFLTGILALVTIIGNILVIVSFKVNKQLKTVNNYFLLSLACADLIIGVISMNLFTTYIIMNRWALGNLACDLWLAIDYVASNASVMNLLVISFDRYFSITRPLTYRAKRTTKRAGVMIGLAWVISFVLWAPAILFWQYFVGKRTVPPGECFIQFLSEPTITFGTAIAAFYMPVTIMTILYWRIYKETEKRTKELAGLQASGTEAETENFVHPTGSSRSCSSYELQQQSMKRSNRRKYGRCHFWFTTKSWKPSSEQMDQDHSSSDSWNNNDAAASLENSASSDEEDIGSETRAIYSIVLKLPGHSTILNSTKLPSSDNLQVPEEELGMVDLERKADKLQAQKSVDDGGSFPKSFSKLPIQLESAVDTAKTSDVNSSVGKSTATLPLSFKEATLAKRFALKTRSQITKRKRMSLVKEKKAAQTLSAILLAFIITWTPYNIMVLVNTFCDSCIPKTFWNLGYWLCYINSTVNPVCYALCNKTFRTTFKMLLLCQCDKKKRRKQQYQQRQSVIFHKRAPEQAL
Sequence of Aromatase / CYP19A1 (P11511 whole entry): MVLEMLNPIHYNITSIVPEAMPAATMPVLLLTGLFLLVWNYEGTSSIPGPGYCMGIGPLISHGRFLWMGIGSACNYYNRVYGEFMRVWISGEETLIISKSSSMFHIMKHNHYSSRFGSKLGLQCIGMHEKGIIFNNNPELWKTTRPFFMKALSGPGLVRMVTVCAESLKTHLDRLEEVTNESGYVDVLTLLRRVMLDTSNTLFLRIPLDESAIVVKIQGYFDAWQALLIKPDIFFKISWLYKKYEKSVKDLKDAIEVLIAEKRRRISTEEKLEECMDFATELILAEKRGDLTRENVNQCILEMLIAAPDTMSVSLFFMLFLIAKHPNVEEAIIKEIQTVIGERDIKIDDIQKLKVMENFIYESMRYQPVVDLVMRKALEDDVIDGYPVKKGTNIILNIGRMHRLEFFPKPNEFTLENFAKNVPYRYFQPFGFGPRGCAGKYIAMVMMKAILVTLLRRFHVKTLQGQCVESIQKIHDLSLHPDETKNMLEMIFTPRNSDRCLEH

In the case of `CC(=O)c1ccccn1` [2AP, 2-acetyl pyridine], the inhibition (commonly the drop in the measured response relative to a control, in per cent) at 10 µM against Aromatase / CYP19A1 is 1%; at Adrenergic α2A, -5%; in series [1], -2%; on Adrenergic α1A, 5%; at CYP1A2 it was 3%; at Adrenergic β1, 3%. The inhibition at 10 µM on Muscarinic M3 amounted to 1%. In addition, the % Inhibition (commonly how much of the control response was suppressed) was found to be 27% with Glutamate; 13% in the series with Sodium Channel, Site 2; 7% in series [2]; 4% in the series with GABAA Muscimol; 3% in the series with Imidazoline I2, Central. The inhibition at Adrenergic β2 is 5%; at Dopamine D2S, -4%; at Cannabinoid CB1, -1%; on Opiate μ (OP3, MOP), 0%; at Muscarinic M2 it was 4%.
